Assay results published in US11440923B2, “Substituted macrocyclic indole derivatives” (Bayer Aktiengesellschaft, priority 2017, dated 2022).
Read-outs that look alike come from different tables or passages of the source.

Assays:
SUDHL5 cells [1] = assay: Induction of cytotoxicity in SUDHL5 cells (Assay 6); assay type: cell-based; details: 5 h, CellTiter-Glo, read-out: Cytotox SUDHL5 IC50 (median)
How it was run: (§1)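 SUDHL5 and SUDHL10 cells plated and held overnight at 37° C, then incubated 5 h at 37° C with compound. Viability measured by CellTiter-Glo luminescence after 15 min shaking at room temperature. Cell-free medium wells served as control.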

MCL-1 = MCL-1 (Homo sapiens (Human), UniProt Q07820, K194A/K197A/R201A); assay: Protein-protein interaction assay MCL-1/Noxa BH3 peptide (MCL-1 assay, TR-FRET); assay type: binding
Chain of MCL-1 (Q07820 whole entry, looked up, stated change not applied, the tested form may be a part): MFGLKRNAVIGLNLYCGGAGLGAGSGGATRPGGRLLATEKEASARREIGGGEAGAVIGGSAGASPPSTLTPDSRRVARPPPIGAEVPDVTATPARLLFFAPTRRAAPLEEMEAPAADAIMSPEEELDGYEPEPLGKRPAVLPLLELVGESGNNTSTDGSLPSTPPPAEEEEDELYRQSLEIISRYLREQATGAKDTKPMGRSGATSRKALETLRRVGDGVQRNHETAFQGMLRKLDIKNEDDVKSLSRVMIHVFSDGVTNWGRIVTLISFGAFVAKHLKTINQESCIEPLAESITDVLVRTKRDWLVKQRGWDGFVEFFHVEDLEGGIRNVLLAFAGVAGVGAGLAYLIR
Description: The dose-dependent inhibition by the compounds described in this invention of the interaction between MCL-1 and the BH3 domain of Noxa (both human) was determined using a steady state binding competition assay with time-resolved fluorescence energy transfer (TR-FRET) readout. For that purpose MCL-1 (amino acids 173-321, N-terminal fused to Maltose Binding Protein (MBP) SEQ ID 1)) and a synthetic Noxa BH3-derived peptide of sequence Biotin-PEG2-PEG2-PAELEVE-Nva-[…]-amide (SEQ ID 2) served as protein receptor and tracer ligand respectively. The MBP-MCL-1 was purchased from Beryllium (Bedford, Mass., USA). The expression and purification of this protein construct has been described elsewhere (DOI:10.1371/journal.pone.0125010). The Noxa BH3-derived peptide can be obtained from e.g. Biosyntan (Berlin, Germany).
For that, 100-fold concentrated DMSO solutions were prepared by serial dilutions (1:3.4) of a 2 mM stock solution in a clear, 384-well microtiter plate (Greiner Bio-One, Frickenhausen, Germany). From there, 50 nl were transferred in a dark test plate (Greiner Bio-One, Frickenhausen, Germany). The assay was initiated by addition of 2 μL of a 2,5-fold concentrated MBP-MCL-1 solution (usually for a 1 nM end concentration in 5 μL reaction volume) in aqueous assay buffer [50 mM Tris/HCl pH 7, 100 mM sodium chloride (NaCl), 50 mM potassium fluoride (KF), 0.005% Tween-20, 2 mM DTT, 0.1% bovine gamma globulin (BGG)] to the compounds in the assay plate. This was followed by a 10-minute incubation step at 22° C. for pre-equilibration of the putative complex between MBP-MCL-1 and the compounds.
The mixture was incubated in the dark for one hour at 22° C. and then overnight at 4° C. The formation of MCL-1/Noxa complexes was determined by measuring the resonance energy transfer of the anti-MBP-Eu-cryptate antibody to the streptavidin-XL665 present in the reaction.
For that purpose, the fluorescence emission at 620 nm and 665 nm after excitation at 330-350 nm was measured in a TR-FRET measuring instrument, for instance a Rubystar or a Pherastar (both from BMG Lab Technologies, Offenburg, Germany) or a Viewlux (Perkin-Elmer). The ratio of the emission at 665 nm and at 622 nm was used as indicator of the amount of MCL-1/NOXA complexes present.
The resulting data (ratio) were normalized, taking 0% inhibition as the mean value of control measurements (usually 32 data points) where all reagents were included. In this case 50 nl DMSO were used instead of compounds. […] IC50 values were determined by regression analysis based on a 4 parameter equation (minimum, maximum, IC50, Hill; Y=Max+(Min−Max)/(1+(X/IC50)^Hill) using the Screener Software (Genedata).

SUDHL5 cells [2] = assay: Induction of caspase-3/7 activity in SUDHL5 cells (Assay 4); assay type: cell-based; details: caspase-3/7 induction, 3 h, read-out: Caspase SUDHL5 EC50 (median)
How it was run: (§2)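 Caspase-3/7 activity measured in DLBCL lines after 3 h compound exposure at 37 °C, following overnight plating; Caspase-Glo 3/7 luminescence read after 1 h at 37 °C. Medium-only background subtracted, values normalized to mean of DMSO-treated cells.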

AMO-1 cells = assay: Antiproliferation assay AMO-1 (Assay 7); assay type: cell-based; details: 72 h, CellTiter-Glo, read-out: Antiproli AMO-1 IC50 median
How it was run: (§3)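 CTG luminescence readout; cells plated, overnight at 37 °C, then 72 h compound treatment. Time-zero plate read in parallel. IC50 from day 0 and DMSO-normalised signal.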

SUDHL10 cells [3] = assay: Induction of caspase-3/7 activity in SUDHL10 cells (Assay 4); assay type: cell-based; details: caspase-3/7 induction, 3 h, read-out: Caspase SUDHL10 EC50 (median)
How it was run: as §2

SUDHL10 cells [4] = assay: Induction of cytotoxicity in SUDHL10 cells (Assay 6); assay type: cell-based; details: 5 h, CellTiter-Glo, read-out: Cytotox SUDHL10 IC50 (median)
How it was run: as §1

HMC-1-8 cells = assay: Antiproliferation assay HMC-1-8 (Assay 7); assay type: cell-based
How it was run: as §3

SUDHL5 cells [5] = assay: Antiproliferation assay SUDHL5 (Assay 7); assay type: cell-based; details: 72 h, CellTiter-Glo, read-out: Antiproli SUDHL5 IC50 (median)
How it was run: as §3

[6] = 72 h, CellTiter-Glo; read-out: Antiproli HMC-1-8 IC50 median
[7] = 72 h, CellTiter-Glo, read-out: Antiproli HMC-1-8 IC50 median

SMILES	IC50 (MCL-1; MCL-1 Assay IC50 (median)) [nM]	EC50 (SUDHL5 cells [2]) [nM]	EC50 (SUDHL10 cells [3]) [nM]	IC50 (SUDHL5 cells [5]) [nM]	EC50 (SUDHL5 cells [2]; Homo sapiens, SU-DHL-5, 3 h) [nM]	IC50 (SUDHL5 cells [5]; Homo sapiens, SU-DHL-5, 72 h) [nM]	EC50 (SUDHL10 cells [3]; Homo sapiens, SU-DHL10, 3 h) [nM]	IC50 (MCL-1; read-out: MCL-1 Assay IC50 (median)) [nM]	IC50 (SUDHL5 cells [1]) [nM]	IC50 (AMO-1 cells) [nM]	IC50 (SUDHL10 cells [4]) [nM]	IC50 (HMC-1-8 cells; [6]) [nM]	IC50 (SUDHL5 cells [1]; Homo sapiens, SU-DHL-5, 5 h) [nM]	IC50 (AMO-1 cells; Homo sapiens, AMO1, 72 h) [nM]	IC50 (SUDHL10 cells [4]; Homo sapiens, SU-DHL10, 5 h) [nM]	IC50 (HMC-1-8 cells; [7]) [nM]
CCc1c2c(nn1C)C(CCCN1CCOCC1)OCCCCn1c(C(=O)O)c(CCCOc3cccc4cc(F)ccc34)c3ccc(Cl)c-2c31 (single isomer, unassigned; enantiomer 2) [Example 67, (−)-4-chloro-3-ethyl-7-{3-[(6-fluoronaphthalen-1-yl)oxy]propyl}-2-methyl-15-[3-(morpholin-4-yl)propyl]-2,10,11,12,13,15-hexahydropyrazolo[4′,3′:9,10][1,6]oxazacycloundecino[8,7,6-hi]indole-8-carboxylic Acid (Enantiomer 2)]	7.8	1600	4400	2100					2600	633	4900	> 33000				
CCc1c2c(nn1C)C(CCN(C)OC)OCCCCn1c(C(=O)O)c(CCCOc3cccc4cc(F)ccc34)c3ccc(Cl)c-2c31 (racemic) [Example 80, (rac)-4-chloro-3-ethyl-7-{3-[(6-fluoronaphthalen-1-yl)oxy]propyl}-(15-rac)-{2-[methoxy(methyl)amino]ethyl}-2-methyl-2,10,11,12,13,15-hexahydropyrazolo[4′,3′:9,10][1,6]oxazacycloundecino[8,7,6-hi]indole-8-carboxylic Acid]	3.5				140	170	130						150	47.4	250	1590
CCc1c2c(nn1C)C(CCN1CC(F)C1)OCCCCn1c(C(=O)O)c(CCCOc3cccc4cc(F)ccc34)c3ccc(Cl)c-2c31 (racemic) [Example 108, (rac)-4-chloro-3-ethyl-15-[2-(rac)-(3-fluoroazetidin-1-yl)ethyl]-7-{3-[(6-fluoronaphthalen-1-yl)oxy]propyl}-2-methyl-2,10,11,12,13,15-hexahydropyrazolo[4′,3′:9,10][1,6]oxazacycloundecino[8,7,6-hi]indole-8-carboxylic Acid]	1.2				66	70	67						84	51.8	130	1870
CCc1c2c(nn1C)C1CCCN1CCCCn1c(C(=O)O)c(CCCOc3cccc4cc(F)ccc34)c3ccc(Cl)c-2c31 (single isomer, unassigned; (-)) [Example 106, (−)-17-chloro-1-ethyl-14-{3-[(6-fluoronaphthalen-1-yl)oxy]propyl}-2-methyl-3b,4,5,6,8,9,10,11-octahydro-2H-pyrazolo[3′,4′:8,9]pyrrolo[1′,2′:6,7][1,6]diazacycloundecino[10,11,1-hi]indole-13-carboxylic Acid]		2700	4800	2100				17	3700	4450	5700	20600				

Continued by falling IC50 (MCL-1; MCL-1 Assay IC50 (median)), values first:

IC50 (MCL-1; MCL-1 Assay IC50 (median)) [nM]	EC50 (SUDHL5 cells [2]) [nM]	EC50 (SUDHL10 cells [3]) [nM]	IC50 (SUDHL5 cells [5]) [nM]	EC50 (SUDHL5 cells [2]; Homo sapiens, SU-DHL-5, 3 h) [nM]	IC50 (SUDHL5 cells [5]; Homo sapiens, SU-DHL-5, 72 h) [nM]	EC50 (SUDHL10 cells [3]; Homo sapiens, SU-DHL10, 3 h) [nM]	IC50 (MCL-1; read-out: MCL-1 Assay IC50 (median)) [nM]	SMILES	IC50 (SUDHL5 cells [1]) [nM]	IC50 (AMO-1 cells) [nM]	IC50 (SUDHL10 cells [4]) [nM]	IC50 (HMC-1-8 cells; [6]) [nM]	IC50 (SUDHL5 cells [1]; Homo sapiens, SU-DHL-5, 5 h) [nM]	IC50 (AMO-1 cells; Homo sapiens, AMO1, 72 h) [nM]	IC50 (SUDHL10 cells [4]; Homo sapiens, SU-DHL10, 5 h) [nM]	IC50 (HMC-1-8 cells; [7]) [nM]
1.1	540	1200	1100					CCc1c2c(nn1C)C1CCCN1CCCCn1c(C(=O)O)c(CCCOc3cccc4cc(F)ccc34)c3ccc(Cl)c-2c31 (racemic) [Example 107, (rac)-17-chloro-1-ethyl-14-{3-[(6-fluoronaphthalen-1-yl)oxy]propyl}-2-methyl-3b,4,5,6,8,9,10,11-octahydro-2H-pyrazolo[3′,4′:8,9]pyrrolo[1′,2′:6,7][1,6]diazacycloundecino[10,11,1-hi]indole-13-carboxylic Acid]	690	1340	890	6640				
0.88		360		330	550			CCc1c2c(nn1C)C1CCCN1CCCCn1c(C(=O)O)c(CCCOc3cccc4cc(F)ccc34)c3ccc(Cl)c-2c31 (racemic) [Example 104, (rac)-17-chloro-1-ethyl-14-{3-[(6-fluoronaphthalen-1-yl)oxy]propyl}-2-methyl-3b,4,5,6,8,9,10,11-octahydro-2H-pyrazolo[3′,4′:8,9]pyrrolo[1′,2′:6,7][1,6]diazacycloundecino[10,11,1-hi]indole-13-carboxylic Acid]	340	543	430	2630				
